Source: US10023610B2, “Ligands for prevention of neurotoxicity of the alzheimer's disease related amyloid-beta peptide” (AlphaBeta AB, priority 2014, dated 2018)
“Also recorded” adds a separate entry of the source.

Tests used:
Aβ1-42 [1] = target: T1, Aβ1-42 (Homo sapiens, UniProt P05067); assay: Electron microscopy of fibril formation from Aβ1-42 in the presence of ligands; format: biochemical; conditions: Aβ1-42 5 μM with 5 or 25 μM ligand, 37° C., 9 hours
T1 construct: Samples of Aβ1-42 peptide (5 μM) alone or mixed with 5 or 25 μM of each ligand
Method: Samples of Aβ1-42 peptide (5 μM) alone or mixed with 5 or 25 μM of each ligand in a volume of 100 μl, were incubated at 37° C. for 9 hours. Aliquotes of 2 μl were taken from the different samples, adsorbed on copper grids and negatively stained with 2.5% uranyl acetate in 50% ethanol. The samples were examined and photographed using a Hitachi H7100 microscope operated at 75 kV.

[2] = system: kainate-induced gamma oscillations; assay: Control: ligands alone on kainate-induced gamma oscillations in hippocampal slices (absence of Aβ); format: cell-based, C57BL/6 mice
Method: (§1) Experiments were carried out in accordance with ethical permit granted by Norra Stockholms Djurförsöksetiska Nämnd to AF (N45/13). C57BL/6 mice of either sex (postnatal days 14-23, supplied from Charles River, Germany) were used in all experiments. The animals were deeply anaesthetized using isofluorane before being sacrificed by decapitation.
(§2) The brain was dissected out and placed in ice-cold ACSF (artificial cerebrospinal fluid) modified for dissection. This solution contained (in mM); 80 NaCl, 24 NaHCO3, 25 Glucose, 1.25 NaH2PO4, 1 Ascorbic acid, 3 NaPyruvate, 2.5 KCl, 4 MgCl2, 0.5 CaCl2, 75 Sucrose. Horizontal sections (350 μm thick) of the ventral hippocampi of both hemispheres were prepared with a Leica VT1200S vibratome (Microsystems, Stockholm, Sweden). Immediately after slicing sections were transferred to a submerged incubation chamber containing standard ACSF (in mM): 124 NaCl, 30 NaHCO3, 10 Glucose, 1.25 NaH2PO4, 3.5 KCl, 1.5 MgCl2, 1.5 CaCl2. The chamber was held at 34° C. for at least 20 minutes after dissection. It was subsequently allowed to cool to ambient room temperature (19-22° C.) for a minimum of 40 minutes. Peptides were added to the incubation solution 15 minutes before transferring slices to the interface-style recording chamber. While incubating slices were continuously supplied with carbogen gas (5% CO2, 95% O2) bubbled into the ACSF. Chemical compounds used in intracellular and extracellular solutions were obtained from Sigma-Aldrich Sweden AB (Stockholm, Sweden). The Kainic acid was obtained from Tocris.
(§3) Recordings were carried out in hippocampal area CA3 with borosilicate glass microelectrodes, pulled to a resistance of 3-7 MO. Local field potentials (LFP) were recorded at 34° C. using microelectrodes filled with ACSF placed in stratum pyramidale. LFP oscillations were elicited by applying kainic acid (100 nM) to the extracellular bath. The oscillations were allowed to stabilize for 20 minutes before any recordings were carried out. LFP recordings were performed with a 4 channel amplifier/signal conditioner M102-amplifier (Electronics lab, Faculty of Mathematics and Natural Sciences, University of Cologne, Cologne, Germany). The signals were sampled at 10 kHz, conditioned using a Hum Bug 50 Hz noise eliminator (Quest Scientific, North Vancouver, BC, Canada), software low-pass filtered at 1 kHz, digitized and stored using a Digidata 1322A and Clampex 9.6 software (Molecular devices, CA, USA).
(§4) Power spectral density plots (from 60 s long LFP recordings) were calculated in averaged Fourier-segments of 8192 points using Axograph X (Kagi, Berkeley, Calif., USA). Oscillation power was calculated by integrating the power spectral density between 20 and 80 Hz. Data is reported as means±standard errors of the means in the text and as median and upper/lower quartile in the figure box plots. For statistical analysis the Mann-Whitney U-test was used.

Aβ1-42 [3] = target: T1, Aβ1-42; assay: Prevention of Aβ-induced decrease of kainate-induced gamma oscillations in hippocampal slices (LFP, area CA3); format: cell-based, C57BL/6 mice
Method: as §1, §2, §3, §4

[4] = 250 nM ligand with 50 nM Aβ, 15 min incubation
[5] = 50 nM ligand, equimolar (1:1) to 50 nM Aβ1-42, 15 min incubation

T1 sequence (P05067 672-713 limits assumed): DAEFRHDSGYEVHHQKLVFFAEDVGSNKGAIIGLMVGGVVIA

prevention of the Aβ-induced decrease of kainate-induced gamma oscillations (Aβ1-42 [3]; [4]) | Structure (SMILES) | fibril formation by Aβ1-42 (electron microscopy) (Aβ1-42 [1]) | effect of ligand alone on kainate-induced gamma oscillations [2] | effectiveness in preventing Aβ-induced degradation of network gamma oscillations compared with first generation ligands (Aβ1-42 [3]) | prevention of the Aβ-induced decrease of kainate-induced gamma oscillations (Aβ1-42 [3]; [5]) | prevention of the Aβ-induced decrease of kainate-induced gamma oscillations (Aβ1-42 [3]; 50 nM ligand, equimolar (1:1) to 50 nM Aβ1-42, 15 min incubation, listed as DH-20)
– | CCCCCCCC[C@H](N)CNCC[C@H](N)C(=O)N[C@H](CCN1C(=O)c2cccc3c(N(C)C)ccc(c23)C1=O)C(=O)NCC[C@@H](NC(=O)CCCC(=O)O)C(=O)O [8AEDabDmnDabGla, HO-Gla-D-Dab-(COOH)-D-DMNA-L-Dap-(NH2)—CH2CH(NH2)—C8] | less fibrils | – | – | – | –
higher prevention | CCCCCCCCCC(=O)NCCNCCN [Dec-DETA, reference compound] | – | neither of these ligands had an effect | – | – | –
– | CCCCCCCCCC(=O)NCCNC[C@H](N)C(=O)N[C@H](CCN1C(=O)c2cccc3c(N(C)C)ccc(c23)C1=O)C(=O)NCC[C@@H](NC(=O)CCCC(=O)O)C(=O)O [DH18_Dmn, HO-Gla-D-Dab-(COOH)-D-DMNA-L-Dap-(NH2)-AE-decanoyl] | less fibrils | neither of these ligands had an effect | more effective than first generation ligands | complete prevention; also recorded: effective also at only a 1:1 ratio; also recorded: reverse Aβ-induced reduction of gamma oscillation; also recorded: prevention of Aβ-induced degradation of network gamma oscillations | –
only partial prevention | N=C(N)CCNCCCC(N)C(=O)NC(Cc1c[nH]c2ccccc12)C(=O)NCCC(NC(=O)CCCC(=O)O)C(=O)O (centres unmarked) [Pep1b, reference compound] | fibrils were formed but to somewhat lesser extent | neither of these ligands had an effect | – | – | –
– | CCCCCCCCCC(=O)NCCNC[C@H](N)C(=O)N[C@H](Cc1c[nH]c2ccccc12)C(=O)NCC[C@@H](NC(=O)CCCC(=O)O)C(=O)O [DH18, (R)—N^4—[N^2—(N^3—(N-decanoyl-2-aminoethyl)-(S)-2,3-diaminopropionyl)-D-tryptophanyl]-N^2-glutanoyl-2,4-diaminobutanoic acid] | – | no effect | – | – | –

Structure (SMILES) | prevention of the Aβ-induced decrease of kainate-induced gamma oscillations (Aβ1-42 [3]; [4]) | fibril formation by Aβ1-42 (electron microscopy) (Aβ1-42 [1]) | effect of ligand alone on kainate-induced gamma oscillations [2] | effectiveness in preventing Aβ-induced degradation of network gamma oscillations compared with first generation ligands (Aβ1-42 [3]) | prevention of the Aβ-induced decrease of kainate-induced gamma oscillations (Aβ1-42 [3]; [5]) | prevention of the Aβ-induced decrease of kainate-induced gamma oscillations (Aβ1-42 [3]; 50 nM ligand, equimolar (1:1) to 50 nM Aβ1-42, 15 min incubation, listed as DH-20)
NC(=O)CCCCCCCCCCC(=O)NCCNC[C@H](N)C(=O)N[C@H](Cc1c[nH]c2ccccc12)C(=O)NCC[C@@H](NC(=O)CCCC(=O)O)C(=O)O [DH20, (R)—N^4—[N^2—(N^3—(N-(12-amino-12-oxododecanoyl)-2-aminoethyl)-(S)-2,3-diaminopropionyl)-D-tryptophanyl]-N^2-glutanoyl-2,4-diaminobutanoic acid] | complete prevention; also recorded: reverses Aβ-induced reduction of gamma oscillation | less fibrils | neither of these ligands had an effect; also recorded: no effect | more effective than first generation ligands | complete prevention | effective also at only a 1:1 ratio; also recorded: reverse Aβ-induced reduction of gamma oscillation
